According to PMC10258794, “To Fold or Not to Fold: Diastereomeric Optimization of an α-Helical Antimicrobial Peptide” (Journal of Medicinal Chemistry, 2023):
In brackets after ≈: the same amount, converted by molar mass. Read-outs that look alike come from different tables or passages of the source.

How the values were obtained:
[1] = system: Burkolderia cenocepacia; assay: microbe, parasite or virus in culture
[2] = system: Enterobacter cloacae; assay: microbe, parasite or virus in culture; conditions: pH 7.4
Summary of the method: (§1)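 Twofold dilution series vs. bacteria (OD600 0.022 dilution, about 5 × 10^5 CFU) in Mueller–Hinton pH 7.4. Incubated 37 °C, 16–20 h, static. MTT added; visual yellow endpoint = MIC.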

[3] = system: P. aeruginosa PA14; assay: microbe, parasite or virus in culture
Summary of the method: as §1

[4] = system: P. aeruginosa ZEM-1A; assay: microbe, parasite or virus in culture; conditions: pH 7.4
Summary of the method: as §1

[5] = system: PA14 2P4 (pmrB); assay: microbe, parasite or virus in culture; conditions: supplementary CSV
Summary of the method: as §1

[6] = system: PA14 4.13 (phoQ); assay: microbe, parasite or virus in culture; conditions: supplementary CSV
Summary of the method: as §1

[7] = system: PA14 4.18 (pmrB); assay: microbe, parasite or virus in culture; conditions: supplementary CSV
Summary of the method: as §1

[8] = system: P. aeruginosa ZEM9A; assay: microbe, parasite or virus in culture; type: cell-based, Pseudomonas aeruginosa; conditions: pH 7.4
Summary of the method: as §1

[9] = system: K. pneumoniae Oxa-48; assay: MIC broth microdilution, K. pneumoniae Oxa-48; type: cell-based, Klebsiella pneumoniae; conditions: MDR strain; MH broth pH 7.4, 16–20 h, 37 °C
Summary of the method: as §1

[10] = system: Stenotrophomonas maltophilia; assay: microbe, parasite or virus in culture; type: cell-based; conditions: pH 7.4
Summary of the method: as §1

[11] = system: Staphylococcus epidermis; assay: MIC broth microdilution, Staphylococcus epidermis; type: cell-based
Summary of the method: as §1

[12] = system: HEK293 cells; assay: Alamar blue cytotoxicity, HEK293; type: cell-based, human; conditions: 24 h, mean ± SD, n = 3, read-out: Toxicity on HEK293 cells
Summary of the method: (§2)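 Cells seeded 4000/well (HEK293, DMEM) or 8000/well (A549, RPMI-1640) with 10% FBS, then exposed to increasing compound concentrations for 24 h at 37 °C, 5% CO2. AlamarBlue (10%) added for 3–5 h; fluorescence ex 560/em 590 nm, normalized to untreated cells.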

[13] = system: A549 cells; assay: Alamar blue cytotoxicity, A549; type: cell-based, human; conditions: 24 h, mean ± SD, n = 3, read-out: Toxicity on A549 lung cancern cells
Summary of the method: as §2

[14] = 24 h, […] human serum in TRIS buffer pH 7.4, 37 °C
Description: Human serum was diluted in 0.1 M filtered TRIS buffer (pH 7.4) (25%, 1:3, v/v). Selected peptides were diluted in 0.1 M filtered TRIS buffer (pH 7.4) to a concentration of 400 μM, and 0.1 mg/mL 4- hydroxybenzoic acid was added as an internal standard. Aliquots of peptide solution (50 μL) were added to aliquots of serum (50 μL) in sterile Eppendorf tubes, to reach a peptide concentration of 200 μM during the assay. Samples were incubated at 37 °C under gentle stirring (350 rpm). Different samples (triplicates) were quenched at different time points (0/1/6/12/24 h) by precipitating serum proteins through the addition of ZnSO4·7 H2O/ACN (1:1) (0.1 M, 100 μL) and cooling in ice bath for 10 min. Protein precipitates were pelleted under centrifugation, and supernatants were then sampled and analyzed by LC–MS. Experiment controls included two references, one known to be degraded and one known to be undegraded. Peaks corresponding to the internal standard and the undegraded peptides were integrated, with the ratio peptide/standard at t = 0 h as 100%.

[15] = system: P. aeruginosa PAO1; assay: Time-killing kinetic assay; type: cell-based, Pseudomonas aeruginosa; conditions: P. aeruginosa PAO1, 4 × MIC, pH 7.4
Description: A single colony of P. aeruginosa PAO1 was picked and grown overnight with shaking (180 rpm) in LB (Sigma-Aldrich, Buchs, Switzerland) medium 5 mL overnight at 37 °C. The overnight bacterial culture was diluted to OD600 0.002 (2 × 10^6 CFU/mL) in fresh MH medium. Stock solutions of AMPs in sterilized milliQ water were prepared in 1 mg/mL and were diluted to two times more than required concentration in fresh MH (Sigma-Aldrich, Buchs, Switzerland) medium at pH 7.4. 100 μL of prepared bacteria solution in MH and 100 μL of samples in MH were mixed in a 96-well microtiter plate (TPP, untreated, Corning Incorporated, Kennebunk, USA). Untreated bacteria at 1 × 10^6 CFU/mL were used as a growth control. 96-well microtiter plates were incubated in 37 °C with shaking (180 rpm). Surviving bacteria were quantified at 0, 0.5, 1, 2, 3, 4, 5, and 6 h by plating 10-fold dilutions of the sample in sterilized normal saline on LB agar plates. LB agar plates were incubated at 37 °C for 10 h, and the number of individual colonies was counted at each timepoint. The assay was performed in triplicate in the biosafety level 2 lab.

[16] = system: A. baumannii ATCC19606; conditions: MH broth pH 7.4, 16–20 h, 37 °C
Summary of the method: as §1

[17] = system: E. coli W3110; conditions: MH broth pH 7.4, 16–20 h, 37 °C
Summary of the method: as §1

[18] = system: K. pneumoniae NCTC418
Summary of the method: as §1

[19] = system: P. aeruginosa PAO1
Summary of the method: as §1

[20] = system: Pseudomonas aeruginosa, Klebsiella pneumoniae, Acinetobacter baumannii, Escherichia coli, and methicillin-resistant Staphylococcus aureus; conditions: summary of Table 1
Summary of the method: as §1

[21] = system: S. aureus COL MRSA
Summary of the method: as §1

[22] = system: S. aureus Newman
[23] = system: S. aureus Newman; assay: microbe, parasite or virus in culture; conditions: Staphylococcus aureus, pH 7.4, read-out: MIC S. aureus Newman
[24] = MH broth pH 7.4, 16–20 h, 37 °C
[25] = supplementary CSV, ranges of Table 1 given as one number

## CC(C)C[C@H](NC(=O)[C@H](CCCCN)NC(=O)[C@H](N)CCCCN)C(=O)N[C@@H](CC(C)C)C(=O)N[C@@H](CCCCN)C(=O)N[C@@H](CC(C)C)C(=O)N[C@@H](CC(C)C)C(=O)N[C@@H](CCCCN)C(=O)N[C@@H](CC(C)C)C(=O)N[C@@H](CC(C)C)C(=O)N[C@H](CC(C)C)C(N)=O [HP5]
[1]; MDR strain, MH broth pH 7.4, 16–20 h, 37 °C
  MIC Burkolderia cenocepacia: >64 µg/mL
[1]; supplementary CSV
  MIC B. cenocepacia: > 64 µg/mL
[2]
  MIC Enterobacter cloacae: 2 µg/mL (≈ 1.51 µM)
[3]; [24]
  MIC PA14: 2 µg/mL (≈ 1.51 µM)
[3]; supplementary CSV
  MIC P. aeruginosa PA14: 2 µg/mL (≈ 1.51 µM)
[4]
  MIC ZEM-1A: 2 µg/mL (≈ 1.51 µM)
[5]
  MIC P. aeruginosaPA14 2P4: 32 µg/mL (≈ 24.2 µM)
[6]
  MIC P. aeruginosa PA14 4.13: 4 µg/mL (≈ 3.03 µM)
[7]
  MIC P. aeruginosa PA14 4.18: 16 µg/mL (≈ 12.1 µM)
[8]
  MIC ZEM9A: 4 µg/mL (≈ 3.03 µM)
[9]
  MIC K. pneumoniae Oxa-48: 2 µg/mL (≈ 1.51 µM)
[10]
  MIC Stenotrophomonas maltophilia: 2 µg/mL (≈ 1.51 µM)
[11]; pH 7.4
  MIC Staphylococcus epidermis: 2 µg/mL (≈ 1.51 µM)
[12]
  IC50: 93.2 ± 0.1 µM
[13]
  IC50: 18.9 ± 3.6 µM
[14]
  serum stability: entirely stabilize
[15]
  time to complete killing of bacteria: ≤ 1 h
[16]
  MIC A. baumannii ATCC19606: 0.5 µg/mL (≈ 0.378 µM)
[17]
  MIC E. coli W3110: 0.5 µg/mL (≈ 0.378 µM)
[18]; [24]
  MIC K. pneumoniae NCTC418: 2 µg/mL (≈ 1.51 µM)
[18]; [25]
  MIC K. pneumoniae NCTC418: 2 µg/mL (≈ 1.51 µM)
[19]; [24]
  MIC P. aeruginosa PAO1: 2 µg/mL (≈ 1.51 µM)
[19]; [25]
  MIC P. aeruginosa PAO1: 2 µg/mL (≈ 1.51 µM)
[20]
  MIC, span over the five bacterial strains: 0.5 to 4 µg/mL
[21]; [24]
  MIC S. aureus COL MRSA: 2 µg/mL (≈ 1.51 µM)
[21]; [25]
  MIC S. aureus COL: 2 µg/mL (≈ 1.51 µM)
[22]; [24]
  MIC S. aureus Newman: 2 µg/mL (≈ 1.51 µM)
[22]; supplementary CSV
  MIC S. aureus Newmann: 2 µg/mL (≈ 1.51 µM)

## CN[C@H](CC(C)C)C(=O)N[C@H]1C(=O)N[C@@H](CC(N)=O)C(=O)N[C@H]2C(=O)N[C@H]3C(=O)N[C@H](C(=O)N[C@H](C(=O)O)c4cc(O)cc(O)c4-c4cc3ccc4O)[C@H](O)c3ccc(c(Cl)c3)Oc3cc2cc(c3O[C@@H]2O[C@H](CO)[C@@H](O)[C@H](O)[C@H]2O[C@H]2C[C@](C)(N)[C@H](O)[C@H](C)O2)Oc2ccc(cc2Cl)[C@H]1O [Vancomycin, vancomycin, reference compound]
[11]; Staphylococcus, pH 7.4, read-out: MIC Staphylococcus epidermis
  MIC: 0.5 µg/mL (≈ 0.345 µM)
[23]
  MIC: 0.5 µg/mL (≈ 0.345 µM)
